From patent US10392398B2, “Inhibitors of Late SV40 Factor (LSF) as cancer chemotherapeutics” (TRUSTEES OF BOSTON UNIVERSITY, priority 2010, dated 2019)
Where two headings read alike, the source gives them in different places.

Assays:
Type in all cases: cell-based
NIH/3T3 cells = test: Cell proliferation assay (MTS), NIH/3T3; details: for GI50 / IC50: Mus musculus, NIH3T3; for antiproliferative activity relative to comparator: against each cell line (NIH/3T3, HeLa, A549), in words; for IC50: Example 7, FIG. 8, read-out: growth inhibition of NIH/3T3 Cell Line IC50
Description: (§1) Cells were plated at 3×10^4 cells/mL, A549 and HeLa, and 1×10^4 cells/mL, NIH/3T3, in 96-well plates and incubated for 24 h to allow for cell adhesion. LSF-library compounds were dissolved in DMSO, serial diluted in appropriate medium and added to cells in triplicate (2 plates). DMSO was added to control wells at a final concentration of 1%. After 72 h incubation in the presence of compound, confluent cells were assayed for growth proliferation with CellTiter 96® AQueous One Solution Cell Proliferation Assay (MTS) (Promega) according to the manufacturer's protocol. Plates were read at 490 nm on a microplate reader, and IC50 values were determined as the percentage of compound-treated cell growth to control cell growth. HCC cells—one hour after plating HCC cells onto 96-well plates, compound or vehicle (DMSO) was added to the desired concentrations, keeping DMSO at 0.5%. At indicated time points, cell viability was assayed using the CellTiter 96® Non-Radioactive Cell Proliferation Assay (MTT) (Promega).
(§2) QGY-7703 and A549 cells were cultured at 37° C. in 5% CO2 in DMEM (Dulbecco's modification of Eagle's Medium; Corning) supplemented with 10% Fetal Bovine Serum (FBS; Invitrogen). NIH-3T3 cells were cultured at 37° C. in 5% CO2 in DMEM supplemented with 10% Fetal Calf Serum (FCS; Atlanta Biologicals). For cell viability assays, 1,500 cells were seeded in 96-well plates and treated with FQI-34 or vehicle (DMSO) at appropriate concentrations (DMSO at 1%) after 20 hours. After 72-hour incubation with compound or vehicle, cell growth was assessed via the Promega CellTiter 96® AQueous One Solution Cell Proliferation Assay, a colorimetric method to determine the number of viable cells. 20 μL of the CellTiter 96® AQueous One Solution Reagent was added directly into cultured wells and incubated for one hour, after which the absorbance at 490 nm was read with a 96-well plate reader (Opys MR Microplate Reader). The CellTiter 96® AQueous One Solution contains an MTS tetrazolium compound which is bioreduced by cells into a colored formazan product that is soluble in tissue culture medium. The quantity of formazan product as measured by absorbance is directly proportional to the number of living cells in culture. GI50 values were determined from plots of the percentage of compound-treated cell growth to vehicle cell growth vs. compound concentration (GraphPad Prism; non-linear regression 4-parameter curve fit with variable slope).

HeLa cells = test: Cell proliferation assay (MTS), HeLa; details: Homo sapiens; for GI50: 72 h, MTS; for IC50: HeLa, Example 7, FIG. 8, read-out: growth inhibition of HeLa Cell Line IC50
Description: as §1

A549 cells = test: Cell proliferation assay (MTS), A549; details: Homo sapiens; for GI50: 72 h, MTS, read-out: GI50 (μM) A549; for IC50: Example 7, FIG. 8, read-out: growth inhibition of A549 Cell Line IC50
Description: as §1, §2

QGY-7703 HCC cells = test: HCC cell viability (MTT), QGY-7703; details: in words
Description: as §1

cancer cell lines = test: Inhibition of growth of cancer cell lines in vitro (FIGS. 9 and 10); details: 0.2-33 μM
Description: FIG. 9A-9K show the results of inhibition of growth of cancer cell lines in vitro by FQI1 (Formula (IV)). The effect of inhibition of cell growth (represented as a fraction of 1) of increasing concentrations of FQI1 between 0.2-33 μM is shown.
The effect of inhibition of cell growth (represented as a fraction of 1) of increasing concentrations of FQI2 between 0.2-33 μM is shown.

LSF = biological target: T1, LSF (Homo sapiens, UniProt Q12800); test: LSF-dependent luciferase reporter assay in NIH 3T3 cells; parameters: expressed in transfected cells; host or cells: NIH 3T3; details: for IC50: NIH 3T3 cells, dual luciferase, ranges where few concentrations tested, read-out: IC50 (μM) LSF-dependent reporter assat NIH 3T3; for activity in the LSF luciferase reporter assay relative to comparator: in words
T1 sequence (Q12800 1-502): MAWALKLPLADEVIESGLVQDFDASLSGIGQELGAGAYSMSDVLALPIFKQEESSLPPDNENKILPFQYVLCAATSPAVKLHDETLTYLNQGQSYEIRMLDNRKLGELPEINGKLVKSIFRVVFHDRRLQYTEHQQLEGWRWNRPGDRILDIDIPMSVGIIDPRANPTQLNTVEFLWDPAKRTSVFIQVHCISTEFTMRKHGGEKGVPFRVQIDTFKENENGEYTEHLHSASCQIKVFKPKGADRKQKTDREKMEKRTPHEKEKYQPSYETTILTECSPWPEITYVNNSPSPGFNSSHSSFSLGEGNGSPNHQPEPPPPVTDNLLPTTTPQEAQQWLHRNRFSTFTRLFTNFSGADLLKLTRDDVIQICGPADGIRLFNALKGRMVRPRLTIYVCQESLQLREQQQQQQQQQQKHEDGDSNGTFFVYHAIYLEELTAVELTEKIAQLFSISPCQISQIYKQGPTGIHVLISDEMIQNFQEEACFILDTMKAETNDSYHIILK
Description: NIH 3T3 cells were transfected with the expression construct pEF1α-LSF, a LSF expression vector^6,20; the reporter construct pGL3B-WT4E1b, a firefly luciferase reporter vector driven by LSF^12; phRL-TK, a control renilla luciferase reporter vector; and pEFGP, essentially as previously described^12. Five hours after transfection, either vehicle (DMSO) or FQI compound was added, keeping DMSO at 0.5%. Cell extracts were harvested 36 hours post-transfection and firefly and renilla luciferase activities measured via a dual luciferase assay (Promega). Five μl of extract was mixed with 30 μl of luciferase assay reagent (Promega), and luminescence measured for 10 seconds using a 20/20n luminometer (Turner Biosystems). Subsequently, 30 μl of Stop & Glo reagent (Promega) was added, and luminescence also measured for 10 seconds. LSF transactivation activity is given as relative luciferase activity, the ratio of firefly to renilla activities.
NIH-3T3 cells were cultured at 37° C. in 5% CO2 in DMEM (Dulbecco's modification of Eagle's Medium; Corning) supplemented with 10% FCS (FCS; Atlanta Biologicals). Approximately 24 hours prior to transfection, 200,000 cells were plated in 35 mm dishes. After 24 hours, cells were ˜70% confluent, and were transfected for 5 hours with pEF1α-LSF, the reporter construct pGL3B-WT4E1b, phRLTK, and pEFGP (Grant, T. J. et al. Antiproliferative small-molecule inhibitors of transcription factor LSF reveal oncogene addiction to LSF in hepatocellular carcinoma. PNAS (2012), 109, 1-6). Vehicle (DMSO) or FQI-34 was then added, keeping the DMSO at 0.5%. Cell extracts were harvested 36 h post-transfection, and firefly and renilla luciferase activities were measured via a dual luciferase assay (Promega Dual-Luciferase Reporter Assay System). Relative luciferase activity represents firefly luciferase activity normalized to that of renilla luciferase in each extract. IC50 values were determined from plots of normalized luciferase activity vs. compound concentration (Prism GraphPad; non-linear regression 4-parameter curve fit with variable slope).

QGY-7703 cells = test: Cell viability GI50 (MTS), QGY-7703; details: Homo sapiens
Description: as §2

[1] = 72 h, MTS, read-out: GI50 (μM) NIH/3T3
[2] = Table 3, read-out: GI50 (μM) NIH 3T3

## CCOc1ccccc1-c1cc(=O)[nH]c2cc3c(cc12)OCO3 [FQI2, 8-(2-ethoxyphenyl)-[1,3]dioxolo[4,5-g]quinolin-6(5H)-one]
NIH/3T3 cells; [1]
  GI50: 0.71 ± 0.13 µM
NIH/3T3 cells; [2]
  GI50: 0.71 ± 0.13 µM
NIH/3T3 cells
  antiproliferative activity relative to comparator: as active as (S)-FQI1
HeLa cells
  GI50: 0.4 ± 0.04 µM
A549 cells
  GI50: 1.9 ± 0.9 µM
QGY-7703 HCC cells
  cellular proliferation of QGY-7703 cells (MTT): decreased overall cellular proliferation
Cancer cell lines
  growth of a variety of cancers, in vitro cell assay: inhibit the growth of a variety of cancers
LSF
  IC50: 0.8 µM
  activity in the LSF luciferase reporter assay relative to comparator: as effective as the (S)-enantiomer

## COc1ccccc1C1CC(=O)Nc2cc(OC)c(OC)c(OC)c21 (stereo not drawn) [FQI15, 5,6,7-trimethoxy-4-(2-methoxyphenyl)-3,4-dihydroquinolin-2(1H)-one]
NIH/3T3 cells
  IC50: > 200 µM
HeLa cells
  IC50: > 200 µM
A549 cells
  IC50: > 200 µM

## CCOc1ccccc1[C@@H]1CC(=O)Nc2cc3c(cc21)OCO3 [(R)-FQI1]
NIH/3T3 cells; [1]
  GI50: 45 ± 7 µM
NIH/3T3 cells
  IC50: 45 ± 6.9 µM
NIH/3T3 cells; NIH/3T3, HeLa and A549
  times less active than FQI1 in cell proliferation assays: ~10 times
HeLa cells
  IC50: 8 ± 1 µM
  GI50: 8 ± 1 µM
A549 cells
  GI50: 18 ± 3.2 µM
  IC50: 18 ± 3.2 µM
LSF
  activity in the LSF luciferase reporter assay relative to comparator: much less active than the racemate

## COc1ccc2c(c1)C(c1ccccc1OC)CC(=O)N2 (stereo not drawn) [FQI14, 6-methoxy-4-(2-methoxyphenyl)-3,4-dihydroquinolin-2(1H)-one]
A549 cells
  IC50: > 10000 µM

## CCOc1ccccc1C1CC(=O)Nc2cc(OC)c(OC)c(OC)c21 (stereo not drawn) [FQI11, 4-(2-ethoxyphenyl)-5,6,7-trimethoxy-3,4-dihydroquinolin-2(1H)-one]
NIH/3T3 cells
  IC50: > 200 µM
HeLa cells
  IC50: > 200 µM
A549 cells
  IC50: > 200 µM

## CCOc1ccccc1[C@H]1CC(=O)Nc2cc3c(cc21)OCO3 [(S)-FQI1]
NIH/3T3 cells; [1]
  GI50: 1.1 ± 0.41 µM
NIH/3T3 cells
  IC50: 1.1 ± 0.45 µM
  antiproliferative activity relative to comparator: at least twice as active
NIH/3T3 cells; [2]
  GI50: 1.1 ± 0.4 µM
HeLa cells
  IC50: 0.3 ± 0.025 µM
  GI50: 0.3 ± 0.03 µM
A549 cells
  GI50: 3 ± 1.3 µM
  IC50: 3 ± 1.3 µM
LSF
  IC50: 0.8 µM
LSF; versus racemic FQI1
  fold more active than the racemate in the luciferase reporter assay: approximately 3 fold

## CCCCOc1ccccc1C1CC(=O)Nc2cc3c(cc21)OCO3 (stereo not drawn) [FQI3, 8-(2-Butoxyphenyl)-7,8-dihydro-[1,3]dioxolo[4,5-g]quinolin-6(5H)-one]
NIH/3T3 cells; [2]
  GI50: 2.6 ± 0.5 µM
LSF
  IC50: 3 to 5 µM

## COc1ccccc1C1CC(=O)Nc2cc3c(cc21)OC(F)(F)O3 (stereo not drawn) [FQI13, 2,2-difluoro-8-(2-methoxyphenyl)-7,8-dihydro-[1,3]dioxolo[4,5-g]quinolin-6(5H)-one]
NIH/3T3 cells
  IC50: 72 ± 9.8 µM
HeLa cells
  IC50: 8.8 ± 1.4 µM
A549 cells
  IC50: > 300 µM

## COc1ccccc1C1CC(=O)Nc2cc3c(cc21)OCO3 (stereo not drawn) [FQI12, 8-(2-methoxyphenyl)-7,8-dihydro-[1,3]dioxolo[4,5-g]quinolin-6(5H)-one]
NIH/3T3 cells; [2]
  GI50: 4 ± 0.8 µM
LSF
  IC50: 3 to 4 µM

## CCOc1ccccc1C1CC(=O)Nc2cc3c(cc21)OC(F)(F)O3 (stereo not drawn) [FQI9, 8-(2-ethoxyphenyl)-2,2-difluoro-7,8-dihydro-[1,3]dioxolo[4,5-g]quinolin-6(5H)-one]
NIH/3T3 cells
  IC50: 30 ± 3.5 µM
HeLa cells
  IC50: 6.6 ± 1.2 µM
A549 cells
  IC50: > 300 µM

## CCOCCOCCOCCCc1ccc(C2CC(=O)Nc3cc4c(cc32)OCO4)c(OCC)c1 (stereo not drawn) [PEG-FQI]
QGY-7703 cells; Table 5, read-out: QGY-7703 GI50
  GI50: > 10 µM
QGY-7703 cells; Table 8, read-out: QGY-7703 GI50
  GI50: > 10 µM

## COc1ccc(C2CC(=O)Nc3ccc(OC)cc32)cc1 (stereo not drawn) [FQI21, 6-methoxy-4-(4-methoxyphenyl)-3,4-dihydroquinolin-2(1H)-one]
NIH/3T3 cells
  IC50: > 200 µM
HeLa cells
  IC50: 67 ± 9.9 µM
A549 cells
  IC50: > 200 µM

## CCCOc1ccccc1C1CC(=O)Nc2cc3c(cc21)OCO3 (stereo not drawn) [FQI16, 8-(2-propoxyphenyl)-7,8-dihydro-[1,3]dioxolo[4,5-g]quinolin-6(5H)-one]
NIH/3T3 cells; [2]
  GI50: 2.3 ± 0.5 µM
LSF
  IC50: 2 to 4 µM

## COc1ccc(C2CC(=O)Nc3cc4c(cc32)OCO4)cc1 (stereo not drawn) [FQI19, 8-(4-methoxyphenyl)-7,8-dihydro-[1,3]dioxolo[4,5-g]quinolin-6(5H)-one]
NIH/3T3 cells
  IC50: > 200 µM
HeLa cells
  IC50: > 200 µM
A549 cells
  IC50: > 200 µM
